Data set [1] concerns the target T1, PDE3A recombinant enzyme (Homo sapiens, UniProt Q14432).
T1 construct: purchased BPS 79736
Nature of the data set: In vitro assay of inhibitory activity against PDE 3A enzyme (FP, FAM-cAMP). It is filed as biochemical. The settings on record: in vitro screening assay. On the procedure: (§1) • 1. In vitro assay of the inhibitory activity of compounds against PDE 3A and PDE 4B2 enzymes
(§2) • Envision 2104 Multilabel Reader (PerkinElmer) • Black 96-well Plate (Cat #6005540, PerkinElmer) • PDE3A Assay Kit (BPS, Cat. 79736), PDE4B2 Assay Kit (BPS, Cat. 60343) • PDE3A recombinant enzyme • PDE4B2 recombinant enzyme • FAM-Cyclic-3′, 5′-AMP • PDE assay buffer • Binding Agent • Binding Agent Diluent (cAMP)
(§3) • 1) Prepare FAM cAMP working solution: 20 μL of FAM-Cyclic-3′,5′-AMP stock was added to 1980 μL of PDE assay buffer. The mixture was added to all wells at 25 μL/well. • 2) Prepare compound solution: the test compounds were dissolved in DMSO to give a 10 mM stock solution. The compound stock solution was diluted with DMSO to a 100× Top Dose diluent. 5 μL of 100× Top Dose diluent was added to 45 μL of PDE assay buffer to prepare a compound Top Dose working solution. Then, the compound working solution was subjected to double dilution with PDE assay buffer containing 10% DMSO to prepare compound working solutions of various concentrations. The compound working solutions were added to compound wells at 5 μL/well. 5 μL of PDE assay buffer containing 10% DMSO was added to each control well. • 3) Prepare PDE enzyme solution: PDE3A and PDE4B2 enzyme stock solutions were diluted to 150 pg/μL and 50 pg/μL, respectively, with PDE assay buffer, and added to all compound wells and Vehicle control wells at 20 μL/well. 20 μL of PDE assay buffer was added to Blank control wells. • 4) React at room temperature for 1 h. • 5) Prepare Binding Agent: 80 μL of binding agent was added to 7920 μL of binding agent diluent, and the mixture was mixed well and added to all wells at 100 μL/well. • 6) React at room temperature for 1 h. • 7) Read FP on Envision. • 8) Calculation formula for original data:
(§4) % inhibition rate=(FPV−FPS)/(FPV−FPB)×100% • FPS=sample FP • FPV=Vehicle control FP • FPB=Blank control FP.
(§5) Nonlinear regression analysis of log[dose]-inhibition rate was performed by graphpad and IC50 was calculated.

Data set [2] deals with T2, PDE4B2 recombinant enzyme (Homo sapiens, UniProt Q07343).
T2 construct: purchased BPS 60343
T2 sequence (Q07343 1-564 isoform Q07343-2): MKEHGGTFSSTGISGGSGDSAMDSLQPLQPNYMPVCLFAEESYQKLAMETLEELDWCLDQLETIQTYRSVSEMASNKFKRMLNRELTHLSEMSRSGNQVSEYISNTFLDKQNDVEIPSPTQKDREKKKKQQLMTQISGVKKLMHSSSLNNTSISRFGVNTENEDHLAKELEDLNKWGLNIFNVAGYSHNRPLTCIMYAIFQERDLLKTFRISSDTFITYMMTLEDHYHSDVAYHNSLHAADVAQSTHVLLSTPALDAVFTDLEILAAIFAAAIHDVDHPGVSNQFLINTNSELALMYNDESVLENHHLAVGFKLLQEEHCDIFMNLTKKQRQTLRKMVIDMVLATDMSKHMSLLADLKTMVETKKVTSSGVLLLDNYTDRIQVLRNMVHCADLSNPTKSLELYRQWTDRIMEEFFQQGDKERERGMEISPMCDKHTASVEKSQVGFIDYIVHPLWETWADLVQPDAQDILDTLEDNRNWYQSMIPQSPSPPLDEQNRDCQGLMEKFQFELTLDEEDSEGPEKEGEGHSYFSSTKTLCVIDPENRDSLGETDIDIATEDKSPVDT
Nature of the data set: In vitro assay of inhibitory activity against PDE 4B2 enzyme (FP, FAM-cAMP). It is filed as biochemical. The following applies: in vitro screening assay. On the procedure: as §1, §2, §3, §4, §5

The conditions of data set [3]: reported in WO 2000058308 A1; cited from earlier work.
For data set [4] the following is noted: reported in WO 2000058308 A1; cited from earlier work. This is another data set of the same source.
In data set [5] the test system is PDE4. The following applies: biological activity data, background; cited from earlier work.

pIC50: −log10 of the molar value.

Results on four molecules are retold here after US20250171436A1, “Tricyclic Fused Heterocyclic PDE3/4 Dual Inhibitor and Use Thereof” (XIZANG HAISCO PHARMACEUTICAL CO., LTD., priority 2022, published 2025).

T1 sequence (Q14432 whole entry): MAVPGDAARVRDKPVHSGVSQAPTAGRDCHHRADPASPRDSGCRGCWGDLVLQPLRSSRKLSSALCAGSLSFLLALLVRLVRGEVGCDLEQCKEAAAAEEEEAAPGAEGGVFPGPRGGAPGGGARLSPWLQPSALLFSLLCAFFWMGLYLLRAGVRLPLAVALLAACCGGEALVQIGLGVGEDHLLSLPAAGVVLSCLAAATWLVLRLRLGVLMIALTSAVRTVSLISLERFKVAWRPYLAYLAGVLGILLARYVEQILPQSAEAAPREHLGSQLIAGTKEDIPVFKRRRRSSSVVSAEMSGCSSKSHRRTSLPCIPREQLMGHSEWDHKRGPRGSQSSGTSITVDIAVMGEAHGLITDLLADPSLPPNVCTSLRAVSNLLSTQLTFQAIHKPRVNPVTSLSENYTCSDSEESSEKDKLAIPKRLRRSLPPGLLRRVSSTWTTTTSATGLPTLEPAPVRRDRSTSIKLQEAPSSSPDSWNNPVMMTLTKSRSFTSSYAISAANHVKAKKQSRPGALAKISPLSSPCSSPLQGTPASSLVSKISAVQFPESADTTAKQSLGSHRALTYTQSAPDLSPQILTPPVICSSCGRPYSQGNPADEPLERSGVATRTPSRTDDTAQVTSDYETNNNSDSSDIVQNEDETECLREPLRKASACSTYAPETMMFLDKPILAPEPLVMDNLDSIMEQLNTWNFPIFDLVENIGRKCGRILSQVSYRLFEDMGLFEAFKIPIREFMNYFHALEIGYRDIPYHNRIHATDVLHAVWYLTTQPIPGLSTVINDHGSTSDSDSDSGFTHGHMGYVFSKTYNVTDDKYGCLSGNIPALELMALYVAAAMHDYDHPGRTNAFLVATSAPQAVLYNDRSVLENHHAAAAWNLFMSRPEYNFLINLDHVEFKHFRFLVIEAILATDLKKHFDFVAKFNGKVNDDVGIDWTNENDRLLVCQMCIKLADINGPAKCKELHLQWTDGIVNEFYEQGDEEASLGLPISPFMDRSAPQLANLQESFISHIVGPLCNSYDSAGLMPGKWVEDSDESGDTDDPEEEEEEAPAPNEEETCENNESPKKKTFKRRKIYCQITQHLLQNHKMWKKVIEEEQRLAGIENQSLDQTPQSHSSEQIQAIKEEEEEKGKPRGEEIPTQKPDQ

In general, pIC50 refers to −log10 of the IC50, conventionally taken in molar units. On to `COc1cc2c(cc1OC)-c1c/c(=N\c3c(C)cc(C4CC4)cc3C)n(CCNC(=O)c3c(O)nnn3C)c(=O)n1CC2` [Compound 6, (E)-N-(2-(2-((4-cyclopropyl-2,6-dimethylphenyl)imino)-9,10-dimethoxy-4-oxo-6,7-dihydro-2H-pyrimido[6,1-a]isoquinolin-3(4H)-yl)ethyl)-4-hydroxy-1-methyl-1H-1,2,3-triazole-5-carboxamide], for which the pIC50 was 9.28 in data set [1] and 8.07 in data set [2].

As for `CCOc1cc2c(cc1OC)-c1c/c(=N\c3c(C)cc(C4CC4)cc3C)n(CCNC(=O)c3c(O)nnn3C)c(=O)n1CC2` [Compound 8, (E)-N-(2-(2-((4-cyclopropyl-2,6-dimethylphenyl)imino)-9-ethoxy-10-methoxy-4-oxo-6,7-dihydro-2H-pyrimido[6,1-a]isoquinolin-3(4H)-yl)ethyl)-4-hydroxy-1-methyl-1H-1,2,3-triazole-5-carboxamide], the pIC50 in data set [1] is 9.23; in data set [2], 8.85.

For `CCOc1cc2c(cc1OC)-c1c/c(=N\c3c(C)cc(OC)cc3C)n(CCNC(=O)c3c(O)nnn3C)c(=O)n1CC2` [Compound 9, (E)-N-(2-(9-ethoxy-10-methoxy-2-((4-methoxy-2,6-dimethylphenyl)imino)-4-oxo-6,7-dihydro-2H-pyrimido[6,1-a]isoquinolin-3(4H)-yl)ethyl)-4-hydroxy-1-methyl-1H-1,2,3-triazole-5-carboxamide], the values for the pIC50 in data set [1] and in data set [2] were 9.30 and 8.82, respectively.

In the case of `COc1cc2c(cc1OC)-c1c/c(=N\c3c(C)cc(C)cc3C)n(CCNC(N)=O)c(=O)n1CC2` [RPL554], the solubility result in data set [3] was “poor”. The plasma clearance result in data set [4] is “high”. The PDE4 inhibitory activity result in data set [5] is recorded as “unsatisfactory”.
